Reference: the OPERA property sets (Mansouri et al. 2018)
In brackets after ≈: the same amount, converted by molar mass.

Conditions: 20 °C

| Compound | solubility [mM] |
| --- | --- |
| CC(=O)OC(C)C | 303 (≈ 30900 µg/mL) |
| CCCOC(C)=O | 185 (≈ 18900 µg/mL) |
| CC(Cl)C(Cl)(Cl)C(O)O (stereo not drawn) | 136 (≈ 26300 µg/mL) |
| COC(C)=O | 3280 (≈ 243000 µg/mL) |
| CCOC(=O)CCCCC(=O)OCC | 20.9 (≈ 4230 µg/mL) |
| C[C@H]1C[C@@H](OC(=O)c2ccccc2)CC(C)(C)N1 | 12 (≈ 2960 µg/mL) |
| F[P-](F)(F)(F)(F)F.N#[N+]c1ccccc1 | 36 |

Same assay, conditions: 25 °C

| Compound | solubility [mM] |
| --- | --- |
| COc1ccc(C=CC(=O)O)cc1 | 5.15 (≈ 918 µg/mL) |
| O=C(O)c1ccccc1Br | 9.23 (≈ 1860 µg/mL) |
| O=C(O)c1ccc(I)cc1 | 0.109 (≈ 27 µg/mL) |
| O=C(O)/C=C/c1ccc2c(c1)OCO2 | 0.141 (≈ 27 µg/mL) |
| O=C1c2ccc(O)cc2C(=O)c2ccc(O)cc21 | 0.00129 (≈ 0.31 µg/mL) |
| Cc1cccc(S(N)(=O)=O)c1 | 45.6 (≈ 7810 µg/mL) |
| CCCCCCCCC(C(=O)O)C(=O)O | 1.2 (≈ 260 µg/mL) |
| CC(=O)Nc1ccc([N+](=O)[O-])cc1 | 12.2 (≈ 2200 µg/mL) |
| CC(C)c1ccc(C(=O)O)cc1 | 0.92 (≈ 151 µg/mL) |
| O=C1c2ccccc2C(=O)c2cc(O)ccc21 | 0.00491 (≈ 1.1 µg/mL) |
| O=C(O)C=Cc1cccc(Br)c1 | 2.31 (≈ 525 µg/mL) |
